According to patent US7410975B2, “Small molecule toll-like receptor (TLR) antagonists” (Coley Pharmaceutical Group, Inc., priority 2003, dated 2008):
Structures can show the parent of a compound that is named as a salt.

These compounds were tested against T1, human TLR3 (hTLR3) (Homo sapiens, UniProt O15455) (assay: Antagonist screen, hTLR3-NFκB-293 cells, NF-κB-luciferase reporter, with EC50 of poly(I:C)). Conditions: compound at 0.5, 5, 50 μg/ml; EC50 concentration of poly(I:C); 16 h; NF-κB-luciferase.
T1 construct: expressed in transfected cells
T1 sequence (O15455 24-904): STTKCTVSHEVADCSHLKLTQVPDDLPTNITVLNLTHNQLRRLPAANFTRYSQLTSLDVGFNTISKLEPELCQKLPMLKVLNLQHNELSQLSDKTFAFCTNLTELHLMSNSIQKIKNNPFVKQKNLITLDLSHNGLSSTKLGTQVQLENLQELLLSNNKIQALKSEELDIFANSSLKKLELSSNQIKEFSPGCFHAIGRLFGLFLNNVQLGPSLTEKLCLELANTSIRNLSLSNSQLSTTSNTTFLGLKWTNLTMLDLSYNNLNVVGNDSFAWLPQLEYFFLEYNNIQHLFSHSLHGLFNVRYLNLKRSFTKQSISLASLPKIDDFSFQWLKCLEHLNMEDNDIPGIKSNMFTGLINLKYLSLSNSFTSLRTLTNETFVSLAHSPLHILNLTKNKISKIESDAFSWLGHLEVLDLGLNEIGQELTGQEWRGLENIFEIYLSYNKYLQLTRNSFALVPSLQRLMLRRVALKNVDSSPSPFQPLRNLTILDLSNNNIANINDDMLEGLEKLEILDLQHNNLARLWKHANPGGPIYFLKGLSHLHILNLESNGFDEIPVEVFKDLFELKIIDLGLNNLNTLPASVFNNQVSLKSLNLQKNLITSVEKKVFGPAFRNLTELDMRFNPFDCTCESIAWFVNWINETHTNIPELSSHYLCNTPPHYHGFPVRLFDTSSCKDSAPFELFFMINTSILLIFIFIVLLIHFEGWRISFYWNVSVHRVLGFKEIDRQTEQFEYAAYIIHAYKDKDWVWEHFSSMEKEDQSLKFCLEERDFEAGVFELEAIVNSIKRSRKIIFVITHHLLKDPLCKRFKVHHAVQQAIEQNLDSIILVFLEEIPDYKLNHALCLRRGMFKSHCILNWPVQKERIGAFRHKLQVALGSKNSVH
Type: cell-based
Protocol: The method is described in greater detail as follows. The cells for each individual cell clone (hTLR3-NFκB-293, hTLR7-NFκB-293, hTLR8-NFκB-293 and hTLR9-NFκB-293) were counted and seeded one day before the stimulation at 1.5×10^4 cells per well in 96-well cell culture plates. To become adherent the cells were incubated after seeding overnight at 37° C. in 5% CO2 humidified air.
The screen for each compound was performed at the same time for all of the receptors TLR3, TLR7, TLR8 and TLR9. Up to fifteen test compounds, each assayed in duplicate at each of three different final concentrations (0.5 μg/ml, 5 μg/ml, and 50 μg/ml), were used for 16 h cell stimulation on a single multiwell culture plate. A 4× final concentration master plate was created to prepare the different test compounds before they were added to the cells.
Controls were added as duplicates individually for each cell clone on the cell culture plate. Positive controls were used as follows (final concentrations): 50 μg/ml poly(I:C) for hTLR3-NFκB-293; 8 μM resiquimod (R848) for hTLR7-NFκB-293; 30 μM R848 for hTLR8-NFκB-293; and 2.5 μM CpG-ODN 2006 for hTLR9-NFκB-293. Media alone was used as negative control. After addition of controls and small molecules, the cell clones were additionally stimulated with the EC50 concentration of the appropriate receptor-specific ligand.
The mean value of wells H2 and H5 (each with cells and EC50 concentration of the appropriate receptor-specific ligand) divided by the mean of wells H3 and H6 (each with cells alone) yielded the baseline response (i.e., fold induction of luciferase activity) to EC50 concentration of the appropriate receptor-specific ligand.
After 16 h stimulation the supernatant was removed and the cells treated with lysis buffer and stored at −80° C. before measuring.
For each screen result a graphical documentation was performed.
The baseline result (measured with addition of the EC50 concentration of the receptor-specific ligand) for each cell culture plate was measured as described above. Antagonistic effects were measured by down regulation compared to the baseline. Antagonists were scored as follows: • 13: compounds for which there was clear down regulation at 0.5 μg/ml, 5 μg/ml, and 50 μg/ml; • 12: compounds for which there was clear down regulation at 5 μg/ml and 50 μg/ml; • 11: compounds for which there was clear down regulation only at 50 μg/ml; • —: compounds for which there was no clear down regulation even at 50 μg/ml. Agonists
Results were expressed as fold induction over baseline luciferase activity measured in the absence of poly(I:C). […] Additional screening was performed in like manner using additional small molecules selected from another library or specifically prepared for this purpose. Scoring is reported as above but as applied to TLR3.
In the case of `COC(=O)C1=CO[C@@H](C)[C@@H]2CN3CCc4c([nH]c5ccccc45)[C@@H]3C[C@H]12` [compound 593, Tetrahydroalstonine], the “hTLR3 (inhibitory effect, antagonist score)” value was “— (compounds for which there was no clear down regulation even at 50 μg/ml)”.
For `CC[C@]12CCCN3CCc4c(n(c5ccccc45)C(=O)C1)[C@@H]32` [compound 607, Eburnamonine], the “hTLR3 (inhibitory effect, antagonist score)” value was “— (compounds for which there was no clear down regulation even at 50 μg/ml)”.
`Cc1nccc2c1[nH]c1cc(O)ccc12.Cl` [compound 612, Harmol hydrochloride monohydrate] was tested, and the “hTLR3 (inhibitory effect, antagonist score)” value was 11 (compounds for which there was clear down regulation only at 50 μg/ml).
With `COc1ccc2c(c1)[nH]c1c(C)nccc12.Cl` [compound 613, harmine hydrochloride] the “hTLR3 (inhibitory effect, antagonist score)” value was 12 (compounds for which there was clear down regulation at 5 μg/ml and 50 μg/ml).
In the case of `Cc1c2ccncc2c(C)c2c1[nH]c1ccccc12` [compound 614, Ellipticine], the “hTLR3 (inhibitory effect, antagonist score)” value was 12 (compounds for which there was clear down regulation at 5 μg/ml and 50 μg/ml).
`Cc1nccc2c1[nH]c1ccccc12` [compound 620, Harmane hydrochloride] was tested, and the “hTLR3 (inhibitory effect, antagonist score)” value was “— (compounds for which there was no clear down regulation even at 50 μg/ml)”.
In the case of `COc1ccc2[nH]c3c(c2c1)CCN=C3C` [compound 621, Methoxy-6-harmalan], the “hTLR3 (inhibitory effect, antagonist score)” value was “— (compounds for which there was no clear down regulation even at 50 μg/ml)”.
In the case of `CC[C@]12CCCN3CCc4c(n(c5ccccc45)[C@](O)(C(=O)OC)C1)[C@@H]32` [compound 636, Epivincamine], the “hTLR3 (inhibitory effect, antagonist score)” value was 11 (compounds for which there was clear down regulation only at 50 μg/ml).
For `Cl.Cl.c1ccc2c3c([nH]c2c1)C1C2CCC(C4CCCNC42)N1CC3` (stereo not drawn) [compound 685, Nitrarine dihydorchloride], the “hTLR3 (inhibitory effect, antagonist score)” value was “— (compounds for which there was no clear down regulation even at 50 μg/ml)”.
`CN(C)CCCN1c2ccccc2Sc2ccccc21.Cl` [compound 693, Promazinehydrochloride] was tested, and the “hTLR3 (inhibitory effect, antagonist score)” value was “— (compounds for which there was no clear down regulation even at 50 μg/ml)”.
For `CN1CCC(OC(c2ccccc2)c2ccccc2)CC1.Cl` [compound 707, Diphenylpyralinehydrochloride], the “hTLR3 (inhibitory effect, antagonist score)” value was “— (compounds for which there was no clear down regulation even at 50 μg/ml)”.
With `CCCC(C(=O)OCCN(CC)CC)(c1ccccc1)c1ccccc1.Cl` [compound 778, Proadifen hydrochloride] the “hTLR3 (inhibitory effect, antagonist score)” value was 11 (compounds for which there was clear down regulation only at 50 μg/ml).
In the case of `Cl.Clc1ccc(C(OCCN2CCCCC2)c2ccccc2)cc1` (stereo not drawn) [compound 793, Cloperastinehydrochloride], the “hTLR3 (inhibitory effect, antagonist score)” value was 11 (compounds for which there was clear down regulation only at 50 μg/ml).
With `COc1ccc2c(c1)N(CC(C)CN(C)C)c1ccccc1S2.O=C(O)/C=C\C(=O)O` (stereo not drawn) [compound 797, Methotrimeprazinemaleat salt] the “hTLR3 (inhibitory effect, antagonist score)” value was 11 (compounds for which there was clear down regulation only at 50 μg/ml).
With `CS(=O)(=O)O.OC(CCN1CCCCC1)(c1ccccc1)c1ccccc1` [compound 799, Pridinolmethanesulfonate salt] the “hTLR3 (inhibitory effect, antagonist score)” value was “— (compounds for which there was no clear down regulation even at 50 μg/ml)”.
`C[N+]12CCC(CC1)C(OC(=O)C(O)(c1ccccc1)c1ccccc1)C2.[Br-]` (stereo not drawn) [compound 822, Clidinium bromide] was tested, and the “hTLR3 (inhibitory effect, antagonist score)” value was “— (compounds for which there was no clear down regulation even at 50 μg/ml)”.
For `Clc1ccc(C(c2ccccc2Cl)C(Cl)Cl)cc1` (stereo not drawn) [compound 833, Mitotane], the “hTLR3 (inhibitory effect, antagonist score)” value was 11 (compounds for which there was clear down regulation only at 50 μg/ml).
With `CCN(CC)C(C)CN1c2ccccc2Sc2ccccc21.Cl` (stereo not drawn) [compound 840, Ethopropazinehydrochloride] the “hTLR3 (inhibitory effect, antagonist score)” value was “— (compounds for which there was no clear down regulation even at 50 μg/ml)”.
In the case of `CC(CN(C)C)CN1c2ccccc2Sc2ccccc21.CC(CN(C)C)CN1c2ccccc2Sc2ccccc21.O=C(O)C(O)C(O)C(=O)O` (stereo not drawn) [compound 842, Trimeprazine tartrate], the “hTLR3 (inhibitory effect, antagonist score)” value was “— (compounds for which there was no clear down regulation even at 50 μg/ml)”.
With `COC(=O)[C@H]1[C@H]2C[C@@H]3c4[nH]c5cc(OC)ccc5c4CCN3C[C@H]2C[C@@H](OC(=O)c2cc(OC)c(OC)c(OC)c2)[C@@H]1OC` [compound 875, Reserpine] the “hTLR3 (inhibitory effect, antagonist score)” value was “— (compounds for which there was no clear down regulation even at 50 μg/ml)”.
For `OCc1cc2c(cn1)[nH]c1ccccc12` [compound 878, 3-hydroxymethyl-beta-carboline], the “hTLR3 (inhibitory effect, antagonist score)” value was “— (compounds for which there was no clear down regulation even at 50 μg/ml)”.
With `O=C(O)c1cc(C(c2ccc(O)c(C(=O)O)c2)C(Cl)(Cl)Cl)ccc1O` [compound 884] the “hTLR3 (inhibitory effect, antagonist score)” value was “— (compounds for which there was no clear down regulation even at 50 μg/ml)”.
`CN(CCO)C(=O)c1cccc2c1-c1ccccc1C2=O` [compound 890] was tested, and the “hTLR3 (inhibitory effect, antagonist score)” value was “— (compounds for which there was no clear down regulation even at 50 μg/ml)”.
For `COC(=O)c1cccc2c1-c1ccccc1/C2=N/O` [compound 904], the “hTLR3 (inhibitory effect, antagonist score)” value was 12 (compounds for which there was clear down regulation at 5 μg/ml and 50 μg/ml).
For `O=C(O)c1ccccc1NC1CC=CC2=C1C(=O)c1ccccc1C2=O` (stereo not drawn) [compound 917], the “hTLR3 (inhibitory effect, antagonist score)” value was 12 (compounds for which there was clear down regulation at 5 μg/ml and 50 μg/ml).
For `O=C(O)c1cccc2c1/C(=N/O)c1ccccc1-2` [compound 918], the “hTLR3 (inhibitory effect, antagonist score)” value was “— (compounds for which there was no clear down regulation even at 50 μg/ml)”.
With `CCCCOC(=O)c1cc([N+](=O)[O-])cc2c1-c1cc(CO)c([NH+]([O-])O)cc1C2=C(C#N)C#N` (stereo not drawn) [compound 939] the “hTLR3 (inhibitory effect, antagonist score)” value was 11 (compounds for which there was clear down regulation only at 50 μg/ml).
In the case of `O=C(O)c1cccc2c1-c1ccccc1/C2=N/Nc1ccc([N+](=O)[O-])cc1[N+](=O)[O-]` [compound 944], the “hTLR3 (inhibitory effect, antagonist score)” value was 11 (compounds for which there was clear down regulation only at 50 μg/ml).
`C=CCc1ccccc1OC1(c2ccccc2)OC(=O)c2ccccc21` (stereo not drawn) [compound 957] was tested, and the “hTLR3 (inhibitory effect, antagonist score)” value was 12 (compounds for which there was clear down regulation at 5 μg/ml and 50 μg/ml).
`COC(=O)c1ccc(C2CC(=O)Nc3c2ccc2ccccc32)cc1` (stereo not drawn) [compound 965] was tested, and the “hTLR3 (inhibitory effect, antagonist score)” value was 12 (compounds for which there was clear down regulation at 5 μg/ml and 50 μg/ml).
